Data published in PMC2071910 (Respiratory Research, 2007).
Where two headings read alike, the source gives them in different places.

How the values were obtained:
[1] = In vitro metabolism in human lung precision-cut tissue slices, HPLC with UV detection; type: in vitro ADME; details: for Relative drug amount in medium: Parent compound: incubation medium, initial 25 μM; for Relative drug amount in medium: Parent compound / Relative drug amount in human lung tissue slices: Parent compound / Total amount in human lung tissue slices: Parent compound: mean ± SD n = 9; for Relative drug amount in human lung tissue slices: Parent compound / Total amount in human lung tissue slices: Parent compound: tissue extract; for Share of BDP-related material in tissue / Share of BDP-related material in medium: incubation of BDP 25 μM; for Share of BDP-related material in tissue: lung tissue extract; for Metabolites detected in incubation medium: incubation medium, 2, 6 and 24 h
Experimental: Lung slices were prepared at Vitron, Inc. (Tucson, AZ, USA) as previously described. In brief, the lungs were inflated with 2 to 4 L of 0.5% agar/Waymouth's medium mixture at 37°C and were stored at 4°C for 30 to 60 min. Each lung was cut into 2 cm thick slabs, placed on dental wax, and tissue cylinders of 8 mm diameter were prepared using a cordless coring tool. 400 μm thick slices were cut from the cylinders using a Brendel-Vitron tissue slicer.
Three lung slices from each donor were floated onto titanium roller inserts, blotted, and loaded horizontally into glass scintillation vials containing 1.7 mL of Waymouth's MB752/1 tissue culture medium fortified with 10% fetal calf serum, 0.35 g/L L-glutamine, 10 mL/L Fungi-Bact, and 84 μg/mL gentamicin sulfate.
Three vials were used per substrate and time point. A stock solution of the substrate was added prior to dispensing the media into vials. The final substrate concentration was 25 μM. The vials were closed with caps that had central 2-mm holes, placed in a Dynamic Organ Culture incubator (Vitron, Inc., Tucson, AZ, USA) at 37°C, and exposed to 95% O2 and 5% CO2. The human tissue slices were incubated for 2, 6, and 24 h, and cellular viability of human lung slices was assessed using separate incubation samples (see assessment of cellular viability). Slices and media from each vial were harvested separately into separate tubes and stored at -80°C. Metabolism samples containing either tissue or media were shipped on dry ice from Vitron, Inc. to ALTANA Pharma AG for analysis.
The volume of medium was measured at the end of the incubation period. Samples of the incubation medium were prepared by mixing 60 μL of medium with 60 μL of solution for precipitation (0.2 M ZnSO4/ACN, 1:1). Following centrifugation for 5 min (1,000 × g Model5414, Eppendorf) at room temperature, the supernatant was assayed by high performance liquid chromatography (HPLC). Tissue samples were homogenized in 1 mL of methanol using ultrasonic treatment (Branson Sonifier 250; Branson Ultrasonics Corporation, Danbury, Conn) and were centrifuged for 5 min (1,000 × g Model5414, Eppendorf) at room temperature. After centrifugation, 333 μL of the supernatant was dried under a gentle stream of nitrogen at 45°C and resuspended in 75 μL of methanol before analysis.
HPLC analysis was performed using a Hewlett-Packard HP1090 liquid chromatograph (Agilent Technologies Deutschland GmbH, Waldbronn, Germany) with an ultraviolet (UV) detector monitoring at 242 nm. Separation was achieved using a Hypersil MOS column (125 × 4 mm, 5 μm) (Thermo Electron Corp., Dreieich, Germany). A water/ethanol gradient system was run from 30 to 90% ethanol in 10 min followed by an isocratic phase (6 min) with 90% ethanol at a flow rate of 0.75 mL/min. 25 μL of the tissue extract or 100 μL of the supernatant of the medium were injected onto the column.

[2] = directly after inhalation of CIC 800 μg via MDI; cited from earlier work
[3] = parameters: method as in PMID 16566061; details: 14C-ciclesonide 25 μM, previous study; cited from earlier work
[4] = system: glucocorticoid receptor; details: in words, compared with des-CIC and BMP; cited from earlier work
[5] = parameters: method as in earlier work; details: cited from earlier work
[6] = cited from earlier work
[7] = after inhalation of 1 mg BDP via MDI (Aerobec)
[8] = after inhalation of 1600 μg BUD via Nebuhaler

## C[C@]12C=CC(=O)C=C1CC[C@@H]1[C@@H]2[C@@H](O)C[C@@]2(C)[C@H]1C[C@H]1O[C@@H](C3CCCCC3)O[C@]12C(=O)CO [des-CIC, desisobutyryl-ciclesonide]
[1]; incubation of CIC 25 μM, 24 h, present study
  Relative percentage of des-CIC at the end of the incubation period: 32%
[2]
  Amount detected in mouth rinsing solutions: Only traces
[3]
  Relative percentage of des-CIC at the end of the incubation period: 29%
[4]
  Affinity to the glucocorticoid receptor: high affinity

## CC(C)C(=O)OCC(=O)[C@@]12O[C@H](C3CCCCC3)O[C@@H]1C[C@H]1[C@@H]3CCC4=CC(=O)C=C[C@]4(C)[C@H]3[C@@H](O)C[C@@]12C [Ciclesonide, ciclesonide]
[1]; 2 h
  Relative drug amount in medium: Parent compound: 94.9 ± 1.3 % of total UV areas
[1]; 6 h
  Relative drug amount in medium: Parent compound: 83.2 ± 5.5 % of total UV areas
[1]; 24 h
  Relative drug amount in medium: Parent compound: 37.4 ± 7.8 % of total UV areas
[1]; 24 h, listed as CIC
  Relative drug amount in medium: Parent compound: 37 % of total UV areas
[1]; 2 h, 25 μM
  Relative drug amount in human lung tissue slices: Parent compound: 85.0 ± 3.4 % of total UV areas
  Total amount in human lung tissue slices: Parent compound: 6.46 ± 0.92 nmol/vial
[1]; 6 h, 25 μM
  Relative drug amount in human lung tissue slices: Parent compound: 73.5 ± 4.7 % of total UV areas
  Total amount in human lung tissue slices: Parent compound: 8.86 ± 1.68 nmol/vial
[1]; 24 h, 25 μM
  Relative drug amount in human lung tissue slices: Parent compound: 40.0 ± 7.6 % of total UV areas
  Total amount in human lung tissue slices: Parent compound: 9.53 ± 1.70 nmol/vial
[5]
  logD: 6.1

## CCCCCCCCC=CCCCCCCCC(=O)OCC(=O)C12OC(C3CCCCC3)OC1CC1C3CCC4=CC(=O)C=CC4(C)C3C(O)CC12C (centres unmarked) [Des-CIC-oleate]
[5]; from logD 13.0 vs 12.3
  Lipophilicity relative to BUD-oleate: about 5 fold

## C[C@H]1C[C@H]2[C@@H]3CCC4=CC(=O)C=C[C@]4(C)[C@@]3(Cl)[C@@H](O)C[C@]2(C)[C@@]1(O)C(=O)CO [BOH, beclomethasone]
[1]; 24 h
  Share of BDP-related material in tissue: 64.9%
  Share of BDP-related material in medium: 91.6%

## CCC(=O)O[C@]1(C(=O)SCF)[C@H](C)C[C@H]2[C@@H]3C[C@H](F)C4=CC(=O)C=C[C@]4(C)[C@@]3(F)[C@@H](O)C[C@@]21C [Fluticasone propionate, fluticasone propionate]
[1]; 25 μM, listed as FP
  Metabolites detected in incubation medium: no metabolites were detected
[1]; tissue extract, 2, 6 and 24 h, 25 μM
  Metabolites detected in tissue extract / metabolic stability: no metabolites were detected
[1]; 2 h, 25 μM
  Relative drug amount in human lung tissue slices: Parent compound: 100 ± 0.0 % of total UV areas
  Total amount in human lung tissue slices: Parent compound: 8.42 ± 1.26 nmol/vial
[1]; 6 h, 25 μM
  Relative drug amount in human lung tissue slices: Parent compound: 100 ± 0.0 % of total UV areas
  Total amount in human lung tissue slices: Parent compound: 8.62 ± 2.20 nmol/vial
[1]; 24 h, 25 μM
  Relative drug amount in human lung tissue slices: Parent compound: 100 ± 0.0 % of total UV areas
  Total amount in human lung tissue slices: Parent compound: 9.51 ± 2.22 nmol/vial
[5]; pH 7.4
  logD: 3.7
[6]; after single inhalation of FP, in a few patients
  Concentration in central lung tissue: more than 20 ng/g
[6]; after single inhalation of FP, same time as lung tissue sample
  Mean concentration in serum: approximately 0.02 ng/mL
[4]
  Affinity to the glucocorticoid receptor: higher

## CCC(=O)O[C@]1(C(=O)CO)[C@@H](C)C[C@H]2[C@@H]3CCC4=CC(=O)C=C[C@]4(C)[C@@]3(Cl)[C@@H](O)C[C@@]21C [BMP, beclomethasone-17-monopropionate]
[1]; 24 h
  Share of BDP-related material in tissue: 26.6%
  Share of BDP-related material in medium: 8.4%
[1]; lung tissue, esters formed by BMP (and/or BOH)
  Amount of fatty acid esters formed, fold less than for BUD and des-CIC: approximately 10 fold
[6]; [7]
  Median concentration in bronchial tissue: 4.4 ng/g tissue
  Median concentration in serum: 1.2 ng/mL

## CCCC1O[C@@H]2C[C@H]3[C@@H]4CCC5=CC(=O)C=C[C@]5(C)[C@H]4[C@@H](O)C[C@]3(C)[C@]2(C(=O)CO)O1 (some centres unmarked) [Budesonide, budesonide]
[1]; 25 μM, listed as BUD
  Metabolites detected in incubation medium: no metabolites were detected
[1]; 2 h, 25 μM
  Relative drug amount in human lung tissue slices: Parent compound: 72.2 ± 10.8 % of total UV areas
  Total amount in human lung tissue slices: Parent compound: 7.32 ± 0.99 nmol/vial
[1]; 6 h, 25 μM
  Relative drug amount in human lung tissue slices: Parent compound: 64.9 ± 12.0 % of total UV areas
  Total amount in human lung tissue slices: Parent compound: 8.41 ± 2.15 nmol/vial
[1]; 24 h, 25 μM
  Relative drug amount in human lung tissue slices: Parent compound: 53.6 ± 11.5 % of total UV areas
  Total amount in human lung tissue slices: Parent compound: 9.04 ± 1.14 nmol/vial
[6]; [8]
  Mean concentration in blood plasma: 0.63 nmol/kg
  Mean concentration in lung tissue obtained from resections: 5.5 nmol/kg
[4]
  Affinity to the glucocorticoid receptor: slightly lower

## CCC(=O)OCC(=O)[C@@]1(OC(=O)CC)[C@@H](C)C[C@H]2[C@@H]3CCC4=CC(=O)C=C[C@]4(C)[C@@]3(Cl)[C@@H](O)C[C@@]21C [Beclomethasone dipropionate, beclomethasone dipropionate]
[1]; 2 h, 25 μM
  Total amount in human lung tissue slices: Parent compound: 2.19 ± 0.83 nmol/vial
[1]; 6 h, 25 μM
  Total amount in human lung tissue slices: Parent compound: 0.72 ± 0.46 nmol/vial
